In paper PMC5029940, “High Throughput Random Mutagenesis and Single Molecule Real Time Sequencing of the Muscle Nicotinic Acetylcholine Receptor” (PLoS ONE, 2016):

How the values were obtained:
Format in all cases: cell-based
[1] = molecular target: T1, human muscle nicotinic acetylcholine receptor (nAChR), adult form, (α1)2β1δε (Homo sapiens, UniProt P02708+Q04844+Q07001); assay: Fluo-4 Ca2+ flux, FLIPR; details: read-out: α1-Wt / EC50
T1 construct: gene CHRNA1; full-length untagged subunits; CMV-alpha1 plasmid plus EF1alpha beta1-delta-epsilon triple plasmid, transient in HEK293; heteropentamer; with Acetylcholine receptor subunit beta
Excerpt: (§1) Fluo-4 Ca2+ flux, FLIPR on human muscle nicotinic acetylcholine receptor (nAChR), adult form, (α1)2β1δε

[2] = molecular target: T2, human muscle nicotinic acetylcholine receptor (nAChR), adult form, (α1)2β1δε (Homo sapiens, UniProt P02708+Q04844+Q07001, P02708:V275M); assay: Fluo-4 Ca2+ flux, FLIPR
T2 construct: gene CHRNA1; full-length untagged subunits; CMV-alpha1 plasmid plus EF1alpha beta1-delta-epsilon triple plasmid, transient in HEK293; heteropentamer; with Acetylcholine receptor subunit beta
Excerpt: as §1

[3] = molecular target: T3, human muscle nicotinic acetylcholine receptor (nAChR), adult form, (α1)2β1δε (Homo sapiens, UniProt P02708+Q04844+Q07001, P02708:Y233H); assay: Fluo-4 Ca2+ flux, FLIPR
T3 construct: gene CHRNA1; full-length untagged subunits; CMV-alpha1 plasmid plus EF1alpha beta1-delta-epsilon triple plasmid, transient in HEK293; heteropentamer; with Acetylcholine receptor subunit beta
Excerpt: as §1

[4] = molecular target: T4, human muscle nicotinic acetylcholine receptor (nAChR), adult form, (α1)2β1δε (Homo sapiens, UniProt P02708+Q04844+Q07001, P02708:Y233N); assay: Fluo-4 Ca2+ flux, FLIPR
T4 construct: gene CHRNA1; full-length untagged subunits; CMV-alpha1 plasmid plus EF1alpha beta1-delta-epsilon triple plasmid, transient in HEK293; heteropentamer; with Acetylcholine receptor subunit beta
Excerpt: as §1

[5] = molecular target: T1, human muscle nicotinic acetylcholine receptor (nAChR), adult form, (α1)2β1δε; assay: Fluo-4 Ca2+ flux, FLIPR, inhibition of epibatidine response
Target sequence in this assay (P02708 21-457): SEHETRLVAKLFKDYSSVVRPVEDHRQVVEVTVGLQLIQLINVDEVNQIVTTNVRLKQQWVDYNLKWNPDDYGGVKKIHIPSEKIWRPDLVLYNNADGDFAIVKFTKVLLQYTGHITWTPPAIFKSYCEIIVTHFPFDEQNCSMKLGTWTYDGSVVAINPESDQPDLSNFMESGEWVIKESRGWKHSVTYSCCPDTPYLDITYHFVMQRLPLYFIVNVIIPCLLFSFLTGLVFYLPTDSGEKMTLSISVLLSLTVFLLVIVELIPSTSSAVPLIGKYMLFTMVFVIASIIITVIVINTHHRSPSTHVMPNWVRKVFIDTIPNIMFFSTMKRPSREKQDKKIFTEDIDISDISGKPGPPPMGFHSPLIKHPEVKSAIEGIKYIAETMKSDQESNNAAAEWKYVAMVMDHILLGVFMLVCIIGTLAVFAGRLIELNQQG
Target sequence in this assay (Q07001 22-517): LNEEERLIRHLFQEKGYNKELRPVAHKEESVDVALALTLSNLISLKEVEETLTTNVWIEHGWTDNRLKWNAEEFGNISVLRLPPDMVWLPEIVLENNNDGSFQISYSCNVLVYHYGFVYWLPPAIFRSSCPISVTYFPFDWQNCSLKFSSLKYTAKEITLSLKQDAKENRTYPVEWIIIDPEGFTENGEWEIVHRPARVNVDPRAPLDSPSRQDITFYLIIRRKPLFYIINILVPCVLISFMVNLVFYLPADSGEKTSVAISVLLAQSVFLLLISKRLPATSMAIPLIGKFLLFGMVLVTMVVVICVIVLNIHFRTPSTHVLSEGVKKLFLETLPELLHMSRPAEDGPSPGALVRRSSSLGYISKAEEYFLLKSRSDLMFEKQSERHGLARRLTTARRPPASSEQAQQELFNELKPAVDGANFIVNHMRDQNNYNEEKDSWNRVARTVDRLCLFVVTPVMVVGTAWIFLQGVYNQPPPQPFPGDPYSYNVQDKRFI
Target sequence in this assay (Q04844 21-493): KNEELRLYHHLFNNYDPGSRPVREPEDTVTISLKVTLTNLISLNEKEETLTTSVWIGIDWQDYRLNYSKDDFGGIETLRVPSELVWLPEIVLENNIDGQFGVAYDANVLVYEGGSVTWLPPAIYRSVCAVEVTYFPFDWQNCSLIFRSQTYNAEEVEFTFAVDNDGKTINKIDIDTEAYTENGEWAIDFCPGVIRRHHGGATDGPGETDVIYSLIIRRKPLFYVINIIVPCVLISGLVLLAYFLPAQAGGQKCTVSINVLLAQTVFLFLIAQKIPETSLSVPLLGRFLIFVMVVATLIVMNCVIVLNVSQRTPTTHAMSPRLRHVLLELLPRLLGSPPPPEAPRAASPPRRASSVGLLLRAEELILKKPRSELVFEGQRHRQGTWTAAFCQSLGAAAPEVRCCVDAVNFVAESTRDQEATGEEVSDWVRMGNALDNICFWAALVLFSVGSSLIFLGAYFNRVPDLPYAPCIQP
Target sequence in this assay (P11230 24-501 partner): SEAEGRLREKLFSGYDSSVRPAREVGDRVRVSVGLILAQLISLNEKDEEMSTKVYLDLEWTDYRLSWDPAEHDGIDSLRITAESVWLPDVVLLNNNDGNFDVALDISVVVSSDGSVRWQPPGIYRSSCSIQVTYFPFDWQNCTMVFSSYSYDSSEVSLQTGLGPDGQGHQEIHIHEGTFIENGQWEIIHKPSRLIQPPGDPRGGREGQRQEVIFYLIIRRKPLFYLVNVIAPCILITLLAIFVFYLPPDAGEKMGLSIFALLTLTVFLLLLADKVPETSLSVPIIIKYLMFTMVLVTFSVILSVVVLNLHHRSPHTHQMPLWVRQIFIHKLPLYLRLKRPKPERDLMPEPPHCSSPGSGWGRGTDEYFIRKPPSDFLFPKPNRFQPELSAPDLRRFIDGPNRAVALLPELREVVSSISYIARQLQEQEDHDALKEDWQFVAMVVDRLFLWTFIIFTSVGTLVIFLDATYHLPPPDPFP

With `CN1CCC[C@H]1c1cccnc1` [Nicotine] the EC50 [1] was 3650 ± 1040 nM, the EC50 [2] was 557 ± 226 nM and the EC50 [3] was 1390 ± 117 nM. The EC50 [4] was 1380 ± 96 nM.
`COc1cc2c3cc1Oc1cc(ccc1O)C[C@@H]1c4c(cc(OC)c(O)c4Oc4ccc(cc4)C[C@@H]3N(C)CC2)CC[N+]1(C)C` [tubocurarine] was tested, and the IC50 [5] was 3200 ± 2400 nM.
`O=c1cccc2n1C[C@@H]1CNC[C@H]2C1` [Cytisine] showed an EC50 [1] of 2350 ± 367 nM, an EC50 [2] of 592 ± 153 nM and an EC50 [3] of 650 ± 93 nM. For the same compound, the EC50 [4] was 1180 ± 76 nM.
`C[N+]1(C)CCN(c2ccccc2)CC1` [DMPP] showed an EC50 [1] of 1630 ± 203 nM, an EC50 [2] of 67 ± 15 nM and an EC50 [3] of 161 ± 10 nM. The EC50 [4] was 705 ± 22 nM.
